Source: patent US20110189308A1, “METHODS TO TREAT NEURODEGENERATIVE CONDITIONS OR DISEASES BY TARGETING COMPONENTS OF A PTEN SIGNALING PATHWAY” (priority 2008, published 2011)

Test system: primary cortical cultures from (Atg7^flox/flox) mice
Test: Process length in primary cortical cultures from Atg7 flox/flox mice transfected with Cre plasmid, with PI3K inhibitors
Assay type: cell-based, mouse
Details: FIG. 16D; 10 μM Wortmannin or 50 μM LY294002; n>45 neurons per group; mean±S.E.
Excerpt: FIGS. 16A-16D. Primary midbrain neuronal cultures from autophagy-deficient Dat^Cre/+Atg7^flox/flox mice display prolonged neurites. FIG. 16A, Elongated processes in TH-positive neurons in primary midbrain cultures from autophagy-deficient (Dat^Cre/+Atg7^flox/flox) mice relative to controls (Dat^Cre/+Atg7^flox/wild). FIG. 16B, The elongated process phenotype is also apparent in primary cortical cultures from (Atg7^flox/flox) mice transfected with Cre-recombinase encoding plasmid (along with GFP plasmid) compared to primary neurons transfected with GFP plasmid alone. […] FIG. 16C, Quantitation of process length as in (A). Dat^Cre/+Atg7^flox/wild versus Dat^Cre/+Atg7^flox/flox; 0.933±0.098 mm versus 1.704±0.139 mm, p<0.01. n>49 neurons per group in at least three separate independent experiments. FIG. 16D, quantification of data as in (C). Dat^Cre/+Atg7^flox/wild versus Dat^Cre/+Atg7^flox/flox; 0.428±0.036 mm versus 0.721±0.073 mm (DMSO), 0.198±0.018 mm versus 0.217±0.021 mm (Wortmannin, WM), and 0.158±0.015 mm versus 0.176±0.018 mm (LY294002, LY). n>45 neurons per group in at least three separate independent experiments. Bar, 50 μm.**, P<0.01.
Cell Culture. For midbrain culture, midbrain tissues were dissected from newborn mice (postnatal 0 day). The tissues were minced and digested in isolation medium containing 0.25% trypsin and ascorbic acid at 37° C. for 30 min. After the incubation, the digestion was stopped by 3% fetal bovine serum and 0.25% Dnase I. The tissues were triturated 20 times by glass-pipette and filtrated by cell strainer. They were centrifuged at 1,200 rpm for 5 min, and the supernatants were removed. The cells were suspended in plating medium containing 10% fetal bovine serum and plated on poly-D-lysine and laminin-coated 24-well plates. On the next day, the plating medium was replaced by culture medium containing 1% fetal bovine serum and antimitotic agent. The cells were kept on 37° C. for three more days. For cortical culture, cortical tissues were dissected from newborn mice (postnatal 0 day). The tissues were minced and digested in isolation medium containing 0.25% trypsin at 37° C. for 30 min. After the incubation, the digestion was stopped by 3% fetal bovine serum and 0.25% Dnase I. The tissues were triturated 20 times by glass-pipet and filtrated by cell strainer. They were centrifuged at 1,200 rpm for 5 min, and the supernatants were removed. The cells were suspended in plating medium containing 10% fetal bovine serum and plated on poly-D-lysine and laminin-coated 24-well plates. On second day, the cells were transfected with GFP or Cre expression plasmids. To transfect the plasmids, the cells were washed in 500 μl DMEM and added 30 μl of DNA/Ca/Phosphate complex (2 μg DNA/3.75 μl 1M CaCl2/15 μl 2× HBSS). […]

| Compound | process length, Atg7-deficient neurons (Dat^Cre/+Atg7^flox/flox) | process length, control neurons (Dat^Cre/+Atg7^flox/wild) |
| --- | --- | --- |
| O=c1cc(N2CCOCC2)oc2c(-c3ccccc3)cccc12 [LY294002] | 0.176±0.018 mm | 0.158±0.015 mm |
| COC[C@H]1OC(=O)c2coc3c2[C@@]1(C)C1=C(C3=O)[C@@H]2CCC(=O)[C@@]2(C)C[C@H]1OC(C)=O [Wortmannin] | 0.217±0.021 mm | 0.198±0.018 mm |
